Reference: patent publication US8323708B2, “Poultry meat and eggs comprising beneficial fatty acids” (Monsanto Technology LLC, priority 2009, dated 2012)

Experiments:
[1] = Laying hen study: long chain fatty acid composition of eggs; format: in vivo, laying hens; settings: for ALA (C18:3n-3) / DHA (C22:6n-3) / DPA (C22:5 n-3) / EPA (C20:5n-3) / Omega 6/Omega 3 ratio / SDA (C18:4n-3) / Total omega 3's: total egg
Description: A study was conducted to determine whether laying hens fed a diet enriched in stearidonic acid could produce eggs with elevated levels of beneficial omega-3 fatty acids including EPA and DHA. Mature laying hens […] were randomly allotted to seven dietary treatments (16 hens/treatment) and were fed diets containing the following levels of n-3 fatty acids as described in Table 28 for four weeks. Sixteen birds were given each treatment. Four birds were randomly selected out of the 16 per treatment to obtain eggs during week 4 for fatty acid composition. […] The laying hens had ad libitum access to feed and water. The composition of the diets (Table 29) and premixes (Table 30) are provided below. To help prevent oxidation of the fatty acids, 0.05% ethoxyquin (Rendox) was added to each premix. Premixes were manufactured within 3 days of arrival of ethyl esters. To limit the oxidation associated with storage, diets were manufactured once and stored in a refrigerated cooler at 4° C. during the duration of the study. Eggs collected during […] (days 22-28) were maintained under refrigerated conditions until all eggs for that week were collected. Eggs were sorted by hen and treatment. Two eggs per hen from 4 hens per treatment were taken. The two eggs were weighed individually, cracked and the shell weighed. The difference between fresh egg and shell represented liquid egg weight and served as the basis for further calculations. The liquid fraction from each of the two eggs per hen were combined in a sample cup and homogenized. Samples were analyzed for fatty acids by gas chromatography.

[2] = 21 day broiler study: long chain fatty acid composition of skinless breast meat; format: in vivo, broiler chickens; settings: day 21-42
Description: (§1) A 21 day study was conducted to determine whether broiler chickens fed a diet containing SDA could produce meat with elevated levels of omega-3 fatty acids including EPA and DHA.
(§2) Fifty pens of four birds per pen were used. There were 25 pens of males and 25 pens of females. Five pens of males and five pens of females were each fed one of five treatment diets from day 21 to 42 days of age. Prior to day 21 all birds were fed a standard 22% protein starter diet formulated to meet NRC (1994) nutrient requirements (shown in Table 16 as “S” diet). The feed prepared was feed as a crumble.
(§3) The test diets were prepared and fed in mash form. All broilers had ad libitum access to feed and water for the duration of the 21 day study. The composition of the diets (Table 4) and premixes (Table 5) are provided below.
(§4) To help prevent oxidation of the fatty acids, 0.05% ethoxyquin (Rendox) was added to each premix. Premixes were manufactured within 3 days of arrival of ethyl esters. To limit oxidation associated with storage, diets were manufactured once and stored in a refrigerated cooler at 4° C. during the duration of the study.
(§5) For male pens only, four out of the five pens were randomly selected. Two birds from each of these pens were randomly selected (eights birds per treatment). The right and left thigh and right and left breast from these 40 birds were bagged and labeled and frozen. The right breast and thigh samples were analyzed for shelf life stability and the left skinless breast and left boneless, skinless thigh from these same birds were analyzed for fatty acid composition.

[3] = 21 day broiler study: long chain fatty acid composition of thigh meat; format: in vivo, broiler chickens; settings: boneless skinless thigh meat, day 21-42
Description: as §1, §2, §3, §4, §5

CC/C=C\C/C=C\C/C=C\C/C=C\CCCCC(=O)OCC [SDA Ethyl Ester]
ALA (C18:3n-3) ([1]; 0.416% of diet): 42.5 mg/100 g | DHA (C22:6n-3) ([1]; 0.416% of diet): 150 mg/100 g | DPA (C22:5 n-3) ([1]; 0.416% of diet): 35 mg/100 g | EPA (C20:5n-3) ([1]; 0.416% of diet): 10 mg/100 g | Omega 6/Omega 3 ratio ([1]; 0.416% of diet): 5.0 | SDA (C18:4n-3) ([1]; 0.416% of diet): 10 mg/100 g | Total omega 3's ([1]; 0.416% of diet): 247.5 mg/100 g | ALA (C18:3n-3) ([1]; 0.832% of diet): 55 mg/100 g | DHA (C22:6n-3) ([1]; 0.832% of diet): 182.5 mg/100 g | DPA (C22:5 n-3) ([1]; 0.832% of diet): 60 mg/100 g | EPA (C20:5n-3) ([1]; 0.832% of diet): 22.5 mg/100 g | Omega 6/Omega 3 ratio ([1]; 0.832% of diet): 3.7 | SDA (C18:4n-3) ([1]; 0.832% of diet): 25 mg/100 g | Total omega 3's ([1]; 0.832% of diet): 360 mg/100 g | ALA (C18:3n-3) ([2]; ethyl ester 0.416% of diet): 10 mg/100 g | DHA (C22:6n-3) ([2]; ethyl ester 0.416% of diet): 10 mg/100 g | DPA (C22:5 n-3) ([2]; ethyl ester 0.416% of diet): 22.5 mg/100 g | EPA (C20:5n-3) ([2]; ethyl ester 0.416% of diet): 20 mg/100 g | Omega 6/Omega 3 ratio ([2]; ethyl ester 0.416% of diet): 2.9 | SDA (C18:4n-3) ([2]; ethyl ester 0.416% of diet): 22.5 mg/100 g | Total omega 3's ([2]; ethyl ester 0.416% of diet): 85 mg/100 g | ALA (C18:3n-3) ([2]; ethyl ester 0.832% of diet): 10 mg/100 g | DHA (C22:6n-3) ([2]; ethyl ester 0.832% of diet): 10 mg/100 g | DPA (C22:5 n-3) ([2]; ethyl ester 0.832% of diet): 30 mg/100 g | EPA (C20:5n-3) ([2]; ethyl ester 0.832% of diet): 27.5 mg/100 g | Omega 6/Omega 3 ratio ([2]; ethyl ester 0.832% of diet): 2.0 | SDA (C18:4n-3) ([2]; ethyl ester 0.832% of diet): 40 mg/100 g | Total omega 3's ([2]; ethyl ester 0.832% of diet): 117.5 mg/100 g | ALA (C18:3n-3) ([3]; ethyl ester 0.416% of diet): 82.5 mg/100 g | DHA (C22:6n-3) ([3]; ethyl ester 0.416% of diet): 20 mg/100 g | DPA (C22:5 n-3) ([3]; ethyl ester 0.416% of diet): 37.5 mg/100 g | EPA (C20:5n-3) ([3]; ethyl ester 0.416% of diet): 30 mg/100 g | Omega 6/Omega 3 ratio ([3]; ethyl ester 0.416% of diet): 4.4 | SDA (C18:4n-3) ([3]; ethyl ester 0.416% of diet): 187.5 mg/100 g | Total omega 3's ([3]; ethyl ester 0.416% of diet): 362.5 mg/100 g | ALA (C18:3n-3) ([3]; ethyl ester 0.832% of diet): 86.7 mg/100 g | DHA (C22:6n-3) ([3]; ethyl ester 0.832% of diet): 20 mg/100 g | DPA (C22:5 n-3) ([3]; ethyl ester 0.832% of diet): 50 mg/100 g | EPA (C20:5n-3) ([3]; ethyl ester 0.832% of diet): 50 mg/100 g | Omega 6/Omega 3 ratio ([3]; ethyl ester 0.832% of diet): 2.7 | SDA (C18:4n-3) ([3]; ethyl ester 0.832% of diet): 386.7 mg/100 g | Total omega 3's ([3]; ethyl ester 0.832% of diet): 593.3 mg/100 g

CC/C=C\C/C=C\C/C=C\CCCCCCCC(=O)OCC [ALA, alpha-Linolenic Acid - Ethyl Esters]
accumulation of SDA or DPA in eggs ([1]; dietary enrichment of laying hens): no significant accumulation
